The record followed here is publication PMC8162438, “Cancer cell-selective modulation of mitochondrial respiration and metabolism by potent organogold(III) dithiocarbamates” (Chemical Science, 2020).

A value given as a limit tells only on which side of the number the result lay.

As usually defined, the IC50 is the midpoint of a concentration-inhibition curve. A lower IC50 goes with higher potency.

The subject of this test is MRC5. The test is described as follows: MTT cell viability, human fetal lung fibroblasts MRC5. The class given is cell-based. Particulars: 72 h. The method, then: All the gold(III) dithiocarbamate compounds display remarkable cell killing potential in a panel of breast, ovarian, lung and leukemia cancers. Preliminary studies focused on different cancer cell lines (MDA-MB-231, MDA-MB-175, and A2780), an immortalized normal retinal epithelial cell line (RPE-NEO) and human fetal lung fibroblasts (MRC5) (Fig. S111–S129 ^†). These adherent cells were exposed to a serial-diluted concentration of all ten compounds for 72 h. The cells were subsequently treated with 3-(4,5-dimethylthiazol-2-yl)-2,5-diphenyltetrazolium bromide (MTT) solutions, dissolved with DMSO and the absorbance at 570 nm was measured with a plate-reader.
In Vitro Biological Assays
Cell Culture. All cell lines were purchased from ATCC and routinely grown in a humidified incubator at 37 °C with 5-10% CO 2. MDA-MB-231, MDA-MB-175, MRC5, RPE-NEO, H460, and K562 were grown in DMEM supplemented with 10% FBS, 1% amphotericin and 1% penicillin/streptomycin. A2780 cells were grown in RPMI supplemented with 10% FBS, 1% amphotericin, and 1% penicillin/streptomycin, and 4 mM glutamine. All supplements along with PBS and trypsin-EDTA were purchased from Corning Inc. and used as is. […]
Cell Viability of 1a-1e and 2a-2e (Adherent Cell Lines). The cell viability of all 10 complexes were performed in MDA-MB-231, MDA-MB-175, A2780, RPE-NEO and MRC5. The cell viability of compound 2a was also determined in H460. Cells were grown to confluency and trypsin was added to detach and harvest cells. The cells were washed with 2 mL of PBS and suspended in 10 mL of the appropriate media. The cells were centrifuged at 2000 rpm for 5 minutes and the pellet washed with 2 mL of PBS then suspended in 5 mL of the appropriate […]
media. The cells were plated at a density of 2,000 cells/well in a 96-well clear bottom plate and allowed to adhere overnight at 37 °C with 5-10% CO 2. The compounds were prepared as a stock in DMSO and used fresh. The compounds were added at seven concentrations with a 3x serial dilution starting at 50 µM for the highest concentration and incubated at 37 °C for 72 h with 5-10% CO 2. The medium was removed and a solution of MTT (100 µL, prepared by dissolving MTT at 5 mg/mL and diluting by 10x with DMEM) was added to each well and incubated for 4 h at 37 ° C with 5-10% CO 2. The dye was removed from each well and 100 µL of DMSO was added to induce cell lysis. The plates were read using a Genios plate reader (λ = 570 nm). The experiment was performed in triplicate and data are plotted as the mean ± s.e.m. (n = 3). Data for 2a can be found in the main text (Figure 6) and the other complexes can be seen in the supplementary figures (S111 – S129). […]
Cells were grown to confluency and centrifuged at 2000 rpm for 5 minutes to collect the cell pellet. The cells were washed with 5 mL of PBS, suspended in 5 mL of DMEM, and centrifuged again at 2000 rpm for 5 minutes to collect the pellet. The pellet was then washed with 2 mL of PBS and suspended in 5 mL of DMEM. The cells were plated at density of 2,000 cells/well in a 96-well white bottom plate. 2a was prepared as a stock solution […]
10% CO 2. The cells were removed from the incubator and allowed to rest at room temperature for 30 minutes. To each designated well was then added 20 µL of CellTiter-Glo solution and orbitally shaken for 5 minutes and the luminescence (1000 ms integration and 150 ms gain) acquired on a Genios plate reader. The experiment was performed in triplicate. Data are plotted […]
Apoptosis Analysis. […]
A stock of 2a was prepared fresh in DMSO and added to the desired well at a concentration of 1 µM with a final volume of 2.5 mL and incubated for 4 h at 37 °C. A stock of H2O2 was prepared in PBS and the cells treated at a final concentration of 2 mM for 1 hour as a […]

On to `CC[N+](CC)=C1[S][Au-2]2([S]1)[c]1ccccc1Cc1cccc[n+]12.F[P-](F)(F)(F)(F)F` (centres unmarked) [2b], for which the IC50 was above 50 µM. With `F[P-](F)(F)(F)(F)F.O=C1c2cccc[c]2[Au-2]2([S]C(=[N+]3CCN(c4ccc(Br)cc4)CC3)[S]2)[n+]2ccccc21` (centres unmarked) [1d] the figure was above 50 µM; with `COc1ccc(N2CC[N+](=C3[S][Au-2]4([S]3)[c]3ccccc3C(=O)c3cccc[n+]34)CC2)cc1.F[P-](F)(F)(F)(F)F` (centres unmarked) [1e], above 50 µM; with `Brc1ccc(N2CC[N+](=C3[S][Au-2]4([S]3)[c]3ccccc3Cc3cccc[n+]34)CC2)cc1.F[P-](F)(F)(F)(F)F` (centres unmarked) [2d], above 50 µM.

With `COc1ccc(N2CC[N+](=C3[S][Au-2]4([S]3)[c]3ccccc3Cc3cccc[n+]34)CC2)cc1.F[P-](F)(F)(F)(F)F` (centres unmarked) [2e], the IC50 was above 50 µM. On to `F[P-](F)(F)(F)(F)F.O=C1c2cccc[c]2[Au-2]2([S]C(=[N+]3CCCCC3)[S]2)[n+]2ccccc21` (centres unmarked) [1c], for which the IC50 was above 50 µM. The molecule `F[P-](F)(F)(F)(F)F.c1cc[c]2c(c1)Cc1cccc[n+]1[Au-2]21[S]C(=[N+]2CCCCC2)[S]1` (centres unmarked) [2c] had an IC50 above 50 µM. In the case of `CC[N+](CC)=C1[S][Au-2]2([S]1)[c]1ccccc1C(=O)c1cccc[n+]12.F[P-](F)(F)(F)(F)F` (centres unmarked) [1b] it was above 50 µM.
